Laboratory results: patent publication US11834431B2, “Crystals of cyclic amine derivative and pharmaceutical use thereof” (Toray Industries, Inc., priority 2016, dated 2023)
Like-named read-outs stand apart in the source and are kept apart here.

How the values were obtained:
[1] = test system: spinal nerve ligation model rats (neuropathic pain model rats); test: Analgesic effect on allodynia in spinal nerve ligation model rats (von Frey, 50% response threshold); format: in vivo, rat; conditions: measured 3 hours after administration, 8 days after ligation, compared to negative control group
Procedure: Analgesic effects of the crystal of compound (I) or the pharmacologically acceptable salt thereof upon neuropathic pain were evaluated using spinal nerve ligation model rats (Kim and Chung, Pain, 1992, vol. 50, p. 355). Form A crystal of compound (I) was used as a crystal of compound (I) or the pharmacologically acceptable salt thereof for evaluation.
The above model rats were prepared as follows. In experiments, 6-to 7-week-old SD male rats were used for 5 to 7 cases per group, and the lumbar skin and muscle of each rat were dissected to expose the L5 and L6 […] under inhalation anesthesia with isoflurane. After ligating the L5 and L6 spinal nerves with silk suture, the wound of each rat was sutured. Thus, a nerve ligation group was prepared. The group in which the nerve was exposed but not ligated was determined to be a sham surgery group.
Allodynia observed in spinal nerve ligation model rats was measured using a von Frey filaments according to a method described in a known publication (Chaplan et al., J. Neurosci. Methods, 1994, vol. 53, p. 55) and a 50% response threshold (g) was determined. Eight days after the ligation surgery, allodynia of the nerve ligation group was measured before oral administration of Form A crystal of compound (I). Rats with a 50% response threshold (average value of the right hind paw and the left hind paw) of 2 g to less than 6 g were considered to have developed allodynia. The rats were divided as neuropathic pain model rats into groups such that there was no significant difference in the 50% response threshold between groups. Allodynia was measured 3 hours after the oral administration of Form A crystal of compound (I), and the analgesic effect was evaluated. Pregabalin was used as a positive control.
Form A crystal of compound (I) was dissolved in water for injection (distilled water) to result in concentrations of 5, 10, and 20 mg/mL, and orally administered in a dose volume of 1 mL per kg body weight. Pregabalin was dissolved in water for injection (distilled water) to result in a concentration of 10 mg/mL and orally administered in a dose volume of 1 mL per kg of body weight. Water for injection (distilled water) was orally administered to the sham surgery group. A group in which water for injection (distilled water) was orally administered to rats in the nerve ligation group was defined as a negative control group.
The horizontal axis represents the solution to be administered in each group, namely, the nerve ligation group or sham surgery group, and the vertical axis represents the 50% response threshold (g) (mean±standard error, n=5 to 7). […]

[2] = Evaluation of solubility in Japanese Pharmacopoeia test fluids; format: physicochemical; conditions: thermodynamic from solid
Procedure: Form A crystal of compound (I) (100 mg) was weighed into a borosilicate glass vial, and the 1st fluid for disintegration test/1st fluid for dissolution test of the Japanese Pharmacopoeia 16th edition (pH 1.2)(1 mL) or the 2nd fluid for disintegration test of the Japanese Pharmacopoeia 16th edition (pH 6.8)(1 mL) was added in a temperature and humidity test chamber (Amefrec Co., Ltd.; NO DOORα) adjusted to 37° C., followed by stirring. Form B crystal of ethane disulfonate of compound (I) (10 mg) was weighed into a borosilicate glass vial, and the 2nd fluid for disintegration test of the Japanese Pharmacopoeia 16th edition (pH 6.8) (0.1 mL) was added in a temperature and humidity test chamber (Amefrec Co., Ltd.; NO DOORα) adjusted to 37° C., followed by stirring. After 30 minutes, the inside of each vial was visually checked, and it was confirmed that each crystal was completely dissolved.

In the case of `CN(C)C1CCN(C(=O)C[C@H](O)c2nccn2C)CC1` [Form A crystal, (S)-1-(4-(dimethylamino)piperidin-1-yl)-3-hydroxy-3-(1-methyl-1H-imidazol-2-yl)propan-1-one], the “improvement of allodynia (50% response threshold)” value ([1]; oral 5 mg/kg) is reported as “significant improvement”, the “improvement of allodynia (50% response threshold)” value ([1]; oral 10 mg/kg) is reported as “significant improvement” and the “improvement of allodynia (50% response threshold)” value ([1]; oral 20 mg/kg) is reported as “significant improvement”. For the same compound, the solubility at 30 min ([2]; Japanese Pharmacopoeia test fluids, text summary of Table 5, 37° C., read-out: solubilities) was at least 100 mg/mL and the solubility at 30 min ([2]; simulated gastric fluid, 1st fluid for disintegration test/1st fluid for dissolution test of the Japanese Pharmacopoeia 16th edition (pH 1.2), 37° C., 30 minutes, read-out: Solubility (37° C.)) was over 100 mg/mL.
